experiment: Inhibition of Leishmania mexicana GAPDH(glyceraldehyde-3-phosphate dehydrogenase)

| Ki | Structure (SMILES) |
| --- | --- |
| 800 µM | NC(=O)c1ccccc1C(=O)NC[C@H]1OC(n2cnc3c(NCc4ccccc4)ncnc32)[C@H](O)[C@@H]1O (some centres undefined) |
| 2800 µM | OC[C@H]1O[C@@H](n2cnc3c(NCc4ccccc4)ncnc32)[C@H](O)[C@@H]1O [N6-BENZYLADENOSINE] |
| 3300 µM | Nc1ncnc2c1ncn2C1O[C@H](CNC(=O)c2ccccc2)[C@@H](O)[C@H]1O (some centres undefined) |
| 2500 µM | Nc1ncnc2c1ncn2[C@@H]1O[C@H](CO)[C@@H](O)[C@H]1O [ADENOSINE] |

The next lines start with the compound.

| Structure (SMILES) | Ki |
| --- | --- |
| Nc1ncnc2c1nc(-c1cccs1)n2[C@@H]1O[C@H](CO)[C@@H](O)[C@H]1O | 300 µM |
| CC(C)Nc1nc2c(N)ncnc2n1C1O[C@H](CO)[C@@H](O)[C@H]1O (some centres undefined) | 1500 µM |
| O=C1c2ccccc2C(=O)N1C[C@H]1OC(n2cnc3c(NCc4ccccc4)ncnc32)[C@H](O)[C@@H]1O (some centres undefined) | 4000 µM |
| CC(C)=CCNc1ncnc2c1nc(-c1cccs1)n2C1O[C@H](CO)[C@@H](O)[C@H]1O (some centres undefined) | 9 µM |

experiment: Compound was tested for the inhibition of Leishmania mexicana GAPDH(glyceraldehyde-3-phosphate dehydrogenase)

| Ki | Structure (SMILES) |
| --- | --- |
| 18 µM | CC(C)=CCNc1ncnc2c1nc(-c1cccs1)n2C1O[C@H](CO)[C@@H](O)[C@H]1O (some centres undefined) |
